Measurements taken from publication doi:10.64898/2025.12.21.695763v2 (biorxiv, 2026).
pKd: −log10 of the molar value.

What follows are molecules tested against T1, Mth α-subunit (NrdE) of Class Ib ribonucleotide reductase (Mycolicibacterium thermoresistibile, UniProt G7CEK2) (assay: isothermal titration calorimetry).
T1 sequence (G7CEK2 1-693): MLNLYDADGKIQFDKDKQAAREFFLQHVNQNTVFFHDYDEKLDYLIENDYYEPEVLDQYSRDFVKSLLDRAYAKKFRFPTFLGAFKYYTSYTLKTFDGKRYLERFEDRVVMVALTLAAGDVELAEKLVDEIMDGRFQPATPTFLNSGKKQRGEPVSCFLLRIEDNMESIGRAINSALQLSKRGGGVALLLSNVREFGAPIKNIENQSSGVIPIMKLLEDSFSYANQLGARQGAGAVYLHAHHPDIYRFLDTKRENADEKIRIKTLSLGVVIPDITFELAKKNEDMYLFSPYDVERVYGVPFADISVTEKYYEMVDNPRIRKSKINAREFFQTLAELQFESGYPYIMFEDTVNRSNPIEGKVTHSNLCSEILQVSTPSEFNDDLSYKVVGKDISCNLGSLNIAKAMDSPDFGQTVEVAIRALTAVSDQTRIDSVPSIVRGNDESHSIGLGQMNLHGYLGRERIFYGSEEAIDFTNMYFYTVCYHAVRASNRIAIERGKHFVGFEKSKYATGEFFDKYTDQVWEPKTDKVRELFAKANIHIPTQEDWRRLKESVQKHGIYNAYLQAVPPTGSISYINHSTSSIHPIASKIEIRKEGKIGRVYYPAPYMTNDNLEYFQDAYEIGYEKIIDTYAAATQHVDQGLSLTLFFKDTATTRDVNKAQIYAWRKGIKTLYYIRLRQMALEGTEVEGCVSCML
Format: binding

pKd | Compound
5.34 | Nc1nc2c(ncn2[C@H]2C[C@H](O)[C@@H](COP(=O)(O)OP(=O)(O)OP(=O)(O)O)O2)c(=O)[nH]1 [dGTP]
5.48 | Cc1cn([C@H]2C[C@H](O)[C@@H](COP(=O)(O)OP(=O)(O)OP(=O)(O)O)O2)c(=O)[nH]c1=O [dTTP]

More lines, now with the values behind:

Compound | pKd
Nc1ccn([C@H]2C[C@H](O)[C@@H](COP(=O)(O)OP(=O)(O)OP(=O)(O)O)O2)c(=O)n1 [dCTP] | 5.18
Nc1ncnc2c1ncn2[C@H]1C[C@H](O)[C@@H](COP(=O)(O)OP(=O)(O)OP(=O)(O)O)O1 [dATP] | 5.96
Cc1cn([C@@H]2O[C@H](COP(=O)(O)OP(=O)(O)OP(=O)(O)O)[C@@H](O)[C@H]2O)c(=O)[nH]c1=O [TTP] | 6.19
